Results published in article PMC3429506, “Screening for Novel LRRK2 Inhibitors Using a High-Throughput TR-FRET Cellular Assay for LRRK2 Ser935 Phosphorylation” (PLoS ONE, 2012).

Key:
[1] = biological target: T1, LRRK2 wild-type (Homo sapiens, UniProt Q5S007); assay: TR-FRET cellular assay for LRRK2 Ser935 phosphorylation, SH-SY5Y cells, BacMam LRRK2-GFP wild-type; assay type: cell-based; set-up: This high-throughput assay utilizes cells expressing full-length human LRRK2 with a C-terminal GFP tag (LRRK2-GFP); host or cells: SH-SY5Y cells transduced with BacMam
T1 sequence (Q5S007 whole entry): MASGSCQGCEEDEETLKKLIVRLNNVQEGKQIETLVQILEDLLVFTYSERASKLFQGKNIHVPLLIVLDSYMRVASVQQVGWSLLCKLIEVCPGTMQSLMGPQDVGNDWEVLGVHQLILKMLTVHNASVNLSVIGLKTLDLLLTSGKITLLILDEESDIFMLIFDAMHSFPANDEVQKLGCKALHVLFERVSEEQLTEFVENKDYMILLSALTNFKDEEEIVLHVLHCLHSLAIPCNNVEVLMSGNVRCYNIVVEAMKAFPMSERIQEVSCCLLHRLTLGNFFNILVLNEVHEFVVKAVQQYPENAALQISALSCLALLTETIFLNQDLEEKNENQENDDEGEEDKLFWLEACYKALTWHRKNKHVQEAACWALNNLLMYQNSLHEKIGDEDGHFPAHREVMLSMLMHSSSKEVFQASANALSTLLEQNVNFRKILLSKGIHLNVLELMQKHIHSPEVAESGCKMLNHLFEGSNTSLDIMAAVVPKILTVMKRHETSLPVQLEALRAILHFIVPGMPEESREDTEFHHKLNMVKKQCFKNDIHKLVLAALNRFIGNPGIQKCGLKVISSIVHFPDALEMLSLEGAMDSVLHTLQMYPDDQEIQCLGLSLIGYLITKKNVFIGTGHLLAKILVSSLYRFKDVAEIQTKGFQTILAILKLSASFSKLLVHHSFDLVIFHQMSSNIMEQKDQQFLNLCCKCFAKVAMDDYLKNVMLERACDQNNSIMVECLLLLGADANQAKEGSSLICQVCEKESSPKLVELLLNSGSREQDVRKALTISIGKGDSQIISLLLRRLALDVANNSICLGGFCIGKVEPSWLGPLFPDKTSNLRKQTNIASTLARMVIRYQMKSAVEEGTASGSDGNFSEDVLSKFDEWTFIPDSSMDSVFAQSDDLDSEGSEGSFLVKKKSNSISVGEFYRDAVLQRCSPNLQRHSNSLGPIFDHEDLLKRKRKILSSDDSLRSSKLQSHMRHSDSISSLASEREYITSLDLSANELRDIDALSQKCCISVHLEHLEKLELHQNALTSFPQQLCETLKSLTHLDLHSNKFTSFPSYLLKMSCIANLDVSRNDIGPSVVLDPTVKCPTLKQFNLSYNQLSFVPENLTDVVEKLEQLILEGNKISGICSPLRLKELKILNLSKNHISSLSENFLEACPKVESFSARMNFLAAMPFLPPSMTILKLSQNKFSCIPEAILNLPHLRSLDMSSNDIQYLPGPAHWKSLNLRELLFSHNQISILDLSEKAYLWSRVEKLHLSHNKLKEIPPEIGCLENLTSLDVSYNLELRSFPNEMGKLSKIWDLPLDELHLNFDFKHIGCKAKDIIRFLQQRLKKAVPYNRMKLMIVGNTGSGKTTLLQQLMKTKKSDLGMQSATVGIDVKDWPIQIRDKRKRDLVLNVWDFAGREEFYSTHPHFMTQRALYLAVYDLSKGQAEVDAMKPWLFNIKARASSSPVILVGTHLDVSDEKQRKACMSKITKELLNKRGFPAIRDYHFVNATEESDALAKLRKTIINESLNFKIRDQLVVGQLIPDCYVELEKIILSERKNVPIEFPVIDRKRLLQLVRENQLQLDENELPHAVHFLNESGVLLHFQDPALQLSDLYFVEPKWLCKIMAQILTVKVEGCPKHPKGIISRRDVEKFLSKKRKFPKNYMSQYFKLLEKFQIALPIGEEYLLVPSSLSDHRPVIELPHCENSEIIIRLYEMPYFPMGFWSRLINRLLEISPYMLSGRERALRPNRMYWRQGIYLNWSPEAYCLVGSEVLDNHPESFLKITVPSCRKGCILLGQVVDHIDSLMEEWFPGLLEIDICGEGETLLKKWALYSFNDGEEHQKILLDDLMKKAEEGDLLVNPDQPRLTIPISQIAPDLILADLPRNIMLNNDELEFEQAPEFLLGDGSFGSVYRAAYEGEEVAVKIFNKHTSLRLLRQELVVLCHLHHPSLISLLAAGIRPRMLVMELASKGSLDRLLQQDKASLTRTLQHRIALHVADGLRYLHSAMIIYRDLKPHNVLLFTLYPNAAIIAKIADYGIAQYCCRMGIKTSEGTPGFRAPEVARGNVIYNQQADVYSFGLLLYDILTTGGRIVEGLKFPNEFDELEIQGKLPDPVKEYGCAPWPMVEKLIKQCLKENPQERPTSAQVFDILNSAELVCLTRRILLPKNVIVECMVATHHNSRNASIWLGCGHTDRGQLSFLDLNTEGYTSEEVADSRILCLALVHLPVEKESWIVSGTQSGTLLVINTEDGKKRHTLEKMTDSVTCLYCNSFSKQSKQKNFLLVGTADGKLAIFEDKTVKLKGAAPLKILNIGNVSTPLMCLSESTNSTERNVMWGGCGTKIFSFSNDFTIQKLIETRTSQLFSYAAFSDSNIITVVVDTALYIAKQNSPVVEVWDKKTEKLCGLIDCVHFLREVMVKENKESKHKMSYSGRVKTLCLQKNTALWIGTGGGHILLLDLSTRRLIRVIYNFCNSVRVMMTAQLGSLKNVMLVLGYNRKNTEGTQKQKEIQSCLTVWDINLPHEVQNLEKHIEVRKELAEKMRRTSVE
Method: (§1) U-2 OS cells are maintained in growth medium (McCoy’s 5A supplemented with 10% dialyzed FBS (dFBS), 10 mM HEPES, 0.1 mM NEAA, 1 mM Sodium Pyruvate, and 100 U/mL Penicillin/100 µg/mL Streptomycin). HEK293T cells are maintained in DMEM with 10% dFBS, 10 mM HEPES, 0.1 mM NEAA and 100 U/mL Penicillin/100 µg/mL Streptomycin. SH-SY5Y cells are maintained in DMEM/F-12 medium supplemented with 10% dFBS and 100 U/mL Penicillin/100 µg/mL Streptomycin. […] GIBCO® human neural stem cells (hNSCs) were propagated as an adherent culture in StemPro® NSC SFM according to the manufacturer’s recommended protocol (Life Technologies). For BacMam transduction of U-2 OS and HEK293T, cells were harvested, mixed with various amounts of BacMam LRRK2-GFP reagent (v/v) and plated onto 6-well plates. […] Cells were assayed in 384-well format (∼20,000 cells/well) 48 hours post-transduction as above.
(§2) Transduced cells in the 384-well assay plate were incubated with indicated inhibitors (5X, 5 µL/well) for 60 to 90 minutes. During this time, 6 X lysis buffer (Life Technologies) was supplemented with 30 nM Tb-labeled anti-LRRK2 pSer935 antibody and both protease and phosphatase inhibitor cocktails (Sigma). The complete 6 X lysis buffer was added to each well (5 µL/well) and the plates were incubated at room temperature in the dark for 2 hours. […] A sigmoidal dose-response equation with varying slope was used to fit the data and generate IC50 values. Z′-factor values were calculated as: Z′-factor = 1 - [(3 × stdevno virus +3 × stdevmaxvirus)/(avgmaxvirus – avgno-virus)]. The IC50 values reported in Table 1 are the averaged numbers from three independent experiments.

[2] = biological target: T1, LRRK2 wild-type; assay: TR-FRET cellular assay for LRRK2 Ser935 phosphorylation, HEK293T cells, BacMam LRRK2-GFP wild-type; set-up: This high-throughput assay utilizes cells expressing full-length human LRRK2 with a C-terminal GFP tag (LRRK2-GFP); host or cells: HEK293T cells transduced with BacMam; conditions: WT, +/- SD, three independent experiments, * = partial inhibition, read-out: IC50, TR-FRET cell-based assay for Ser935 phosphorylation of LRRK2
Method: as §1, §2

[3] = biological target: T2, LRRK2 G2019S (Homo sapiens, UniProt Q5S007, G2019S); assay: TR-FRET cellular assay for LRRK2 Ser935 phosphorylation, human neural stem cells, BacMam LRRK2-GFP G2019S; assay type: cell-based; set-up: This high-throughput assay utilizes cells expressing full-length human LRRK2 with a C-terminal GFP tag (LRRK2-GFP); host or cells: U-2 OS, SH-SY5Y, HEK293T cells or human neural stem cells transduced with BacMam; conditions: 10% BacMam G2019S, 90 min, Figure 4, read-out: IC50, inhibition of G2019S Ser935 phosphorylation via TR-FRET
T2 sequence (Q5S007 whole entry G2019S): as the sequence (Q5S007 whole entry) above, with G2019S counted along it
Method: as §1
Transduced cells in the 384-well assay plate were incubated with indicated inhibitors (5X, 5 µL/well) for 60 to 90 minutes. During this time, 6 X lysis buffer (Life Technologies) was supplemented with 30 nM Tb-labeled anti-LRRK2 pSer935 antibody and both protease and phosphatase inhibitor cocktails (Sigma). […] Z′-factor values were calculated as: Z′-factor = 1 - [(3 × stdevno virus +3 × stdevmaxvirus)/(avgmaxvirus – avgno-virus)]. […]

[4] = tested on: LRRK2-GFP; assay: Fluorescence microscopy of LRRK2-GFP localization in U-2 OS cells; assay type: cell-based, human; conditions: 3 µM 90 min, Figure 1A
Method: U-2 OS cells were transduced with BacMam LRRK2-GFP as described above. The cells were then plated on chambered coverslips (LabTek II/Nunc, Rochester, NY) at 50% confluency and incubated for 48 hours. The growth medium was replaced with phenol-red free DMEM® (Life Technologies, Carlsbad, CA) before live imaging. Cells were imaged under the same conditions for each mutant using an inverted microscope (Nikon Eclipse TE2000-S) equipped with a PlanApo 60X objective and a charge-coupled device camera (Diagnostic Instruments SPOT RT 2.3.0) using SPOT Advanced software.

[5] = biological target: T1, LRRK2 wild-type; assay: TR-FRET cellular assay for LRRK2 Ser935 phosphorylation, U-2 OS cells, BacMam LRRK2-GFP wild-type; assay type: cell-based; set-up: This high-throughput assay utilizes cells expressing full-length human LRRK2 with a C-terminal GFP tag (LRRK2-GFP); host or cells: U-2 OS cells transduced with BacMam
Method: as §1, §2

[6] = biological target: T2, LRRK2 G2019S; assay: In vitro biochemical LRRK2 TR-FRET activity assay; conditions: LRRK2 G2019S, ATP 134 µM (Km,app), LRRKtide substrate, three independent experiments; read-out: Biochemical LRRK2 assay IC50 +/- SD
[7] = WT, +/- SD, three independent experiments, * = partial inhibition, read-out: IC50, TR-FRET cell-based assay for Ser935 phosphorylation of LRRK2

COc1cc(C(=O)N2CCC(N3CCN(C)CC3)CC2)ccc1Nc1ncc2c(n1)N(C)c1ccccc1C(=O)N2C [LRRK2-IN-1]
IC50 ([1]; 25% BacMam wild-type, 90 min, Figure 3C, read-out: IC50, inhibition of TR-FRET signal (Ser935 phosphorylation)): 170 nM | IC50 [1, 7]: 200 nM | IC50 [2]: 120 nM | IC50 [3]: 30 nM | LRRK2-GFP cellular localization [4]: relocalization of the wild-type, G2019S and R1441C to more fibrillar-like structures | IC50 ([5]; 20% BacMam wild-type, 90 min, Figure 2B, read-out: IC50, inhibition of TR-FRET signal (Ser935 phosphorylation)): 80 nM | IC50 [5, 7]: 90 nM | IC50 [6]: 10 nM
